Measurements: the METLIN SMRT retention time set (Domingo-Almenara et al. 2019)

Experiment: gradient 5% acetonitrile 3 min, to 50% in 2 min, to 85% in 15 min, held 3 min, 100 µL/min
Details: column: Zorbax Extend-C18 2.1 x 50 mm; eluents: water / acetonitrile, 0.1% formic acid
In short: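 In both positive and negative ionization mode, a quadrupole time-of-flight mass spectrometer coupled to HPLC analyzed pure standards run in mixtures of ~100 molecules. The Zorbax Extend-C18 column (2.1 × 50 mm, 1.8 μm) was operated at 100 μL/min with water and acetonitrile, each containing 0.1% formic acid. The dead volume was 40 μL and the dwell volume 900 μL. Retention time came from adduct peaks that were computationally picked and individually inspected by hand.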

| SMILES | RP-LC retention time |
| --- | --- |
| CCOc1ccc(NS(=O)(=O)c2cc(C(=O)Nc3ccc(C)cc3)n[nH]2)cc1 | 890 s |
| O=C(Cn1cnc2nc(N3CCCC(C(=O)NC4CC4)C3)sc2c1=O)NCc1cccs1 (stereo unspecified) | 644 s |
| COc1cccc(-c2cc3n(n2)CCCN(C(=O)c2ccsc2)C3)c1 | 714 s |
| CCn1cc(CCNC(=O)Nc2ccccc2)c2cccnc21 | 693 s |
| COc1ncc(C(=O)NC2CCC(C)CC2)cn1 (stereo unspecified) | 748 s |
| CCOc1ccc(-c2ccc(=O)n(Cc3nc(-c4ccccc4)no3)n2)cc1 | 1040 s |
| CCn1cnc2ccc(-c3noc(Cc4ccc(Cl)cc4)n3)cc21 | 774 s |
| CCSc1nnc(-c2nn(C)c3c2CN(C(=O)c2cccc(F)c2)CC3)n1C | 744 s |
| Cc1csc(C(=O)NC2CNC(=O)C2)c1 (stereo unspecified) | 572 s |
| O=C(COc1ccc(F)cc1)N1CCN(CC(F)(F)F)CC1 | 771 s |
| COc1ccc(CCc2nc3nccc(-c4ccncc4)n3n2)cc1 | 697 s |
| CCN(CC)C(=O)C1c2cc(OC)c(OC)cc2C(=O)N(C)C1c1ccc(OC)c(OC)c1 (stereo unspecified) | 706 s |
| CCNC(=O)c1cn(-c2ccc(NC(=O)C3CC3)cn2)cn1 | 615 s |
| Clc1cccc(-c2noc(Cc3nc(-c4ccccc4)cs3)n2)c1 | 1280 s |
| CC1CCN(c2cc(-n3cnc(C(=O)NCC4CCCO4)c3)ncn2)CC1 (stereo unspecified) | 819 s |
| CCOc1ccccc1NC(=O)NCc1nc(-c2ccccc2)oc1C | 963 s |
| Cc1nnc(CNC(=O)c2cc(-c3cccs3)[nH]n2)o1 | 582 s |
| CCC(=O)N1CCC(N2CC(OCC3CC3)C23CCOCC3)CC1 (stereo unspecified) | 577 s |
| Cc1cccc2nnc(N3CCN(C(=O)c4ccc(F)c(F)c4)CC3)n12 | 652 s |
| CCOc1ccc(-n2nc(-c3nc(-c4ccncc4)no3)c3ccccc3c2=O)cc1 | 1090 s |
| CC1=NS(=O)(=O)N(Cc2ccccc2)C=C1C(=O)OCc1nc(-c2ccccc2Cl)no1 | 1130 s |
| CCNC(=O)NCCc1cn(CC(C)C)c2ncccc12 | 631 s |
| Fc1ccc(Nc2c(-c3ccccc3)nc3ccccn23)cc1 | 689 s |

| SMILES | RP-LC retention time |
| --- | --- |
| COc1ccccc1CC(=O)Nc1cccn2c(C)nnc12 | 678 s |
| CCOC(=O)c1csc(NC(=O)C2CCCN2S(C)(=O)=O)n1 (stereo unspecified) | 649 s |
| CCOc1nc2ccccc2nc1N1CCCC(C(=O)Nc2ccc(F)c(Cl)c2)C1 (stereo unspecified) | 797 s |
| Cc1cccn2c(Nc3ccc4c(c3)OCCO4)c(-c3ccc(Cl)cc3)nc12 | 747 s |
| O=C(NCc1ccc(C(F)(F)F)cc1)c1c(O)c2cccnc2[nH]c1=O | 1010 s |
| CC(CCc1ccccc1)NC(=O)Cc1nnc(-c2ccc3ncccc3c2)o1 (stereo unspecified) | 761 s |
| COC(=O)c1cnc2nc(C)ccc2c1Nc1ccc(F)cc1F | 674 s |
| CCCN1CCN(CCCNC(=O)C2CCCN(S(=O)(=O)c3ccc4c(ccn4C)c3)C2)CC1 (stereo unspecified) | 598 s |
| COCCN1C(=O)CCc2cc(NS(=O)(=O)c3cc(C)c(C)cc3C)ccc21 | 833 s |
| O=C(Nc1ccccc1F)N1CCCC(Cn2c(C3CC3)nc3cccnc32)C1 (stereo unspecified) | 656 s |
| COc1ccc(-c2ncccc2CNS(=O)(=O)c2cc(C)cc(C)c2)cc1 | 717 s |
| Cc1ccccc1CNC(=O)Cn1c(=O)c2nncn2c2ncccc21 | 662 s |
| Cn1cccc1C(=O)C(=O)Nc1ccc2c(c1)OCCO2 | 842 s |
| COc1ccc(N2C(=O)C3N=NN(c4cccc(OC)c4)C3C2=O)cc1 (stereo unspecified) | 905 s |
| CCOc1ccccc1N1CCN(CC(O)c2ccc3c(c2)OCO3)CC1 (stereo unspecified) | 664 s |
| COc1ccc(C(C)NS(=O)(=O)c2cc(-c3nc(C(C)(C)C)cs3)cs2)cc1 (stereo unspecified) | 1240 s |
| Cc1ccc(C(=O)N2CCCC2c2c(C)noc2C)cc1 (stereo unspecified) | 760 s |
| CCn1c(=O)c(N2CCN(C(=O)Nc3ccc(Br)cc3)CC2)nc2cccnc21 | 1030 s |
| Cc1csc2nc(-c3cccc(NC(=O)c4ccccc4[N+](=O)[O-])c3)cn12 | 667 s |
| Cc1ccc(C)c(NS(=O)(=O)c2cc3n(c2)CCN(CC(C)C)C3=O)c1 | 848 s |
| CC(=O)N1CCc2cc(N3CC(C(=O)NCCC(C)C)CC3=O)ccc21 (stereo unspecified) | 669 s |
| N#C/C(=C\c1cccnc1)c1ccc(Br)cc1 | 999 s |
| CC(C)c1ccc(Nc2c(-c3ccc(N4CCOCC4)cc3)nc3ncccn23)cc1 | 806 s |

| SMILES | RP-LC retention time |
| --- | --- |
| CCc1nnc(NC(=O)CSc2nccn2Cc2ccc3c(c2)OCO3)s1 | 586 s |
| CCc1cccc(C)c1NC(=O)Cn1nc2c3ccccc3ncn2c1=O | 705 s |
| O=c1c2cc(-c3ccc(F)cc3)nn2ccn1CC(O)c1ccc2c(c1)OCO2 (stereo unspecified) | 864 s |
| O=C(Cn1cnc2nc(N3CCC(C(=O)NC4CC4)CC3)sc2c1=O)NCc1ccccc1 | 637 s |
| Nc1cc(-c2cccc(F)c2)[nH]n1 | 608 s |
| c1ccc(-c2nc(N3CCCCCC3)c3ccccc3n2)cc1 | 768 s |
| COc1cccc(CN2CCC(Oc3ccccc3-c3nc(-c4ccncc4)no3)C2)n1 (stereo unspecified) | 686 s |
| Cc1nc2ccccc2c(=O)n1Cc1noc(C2CC(=O)N(c3ccccc3)C2)n1 (stereo unspecified) | 722 s |
| Cc1nc(CCNC(=O)C2CCN(S(=O)(=O)c3ccc(CC(C)C)cc3)CC2)cs1 | 917 s |
| CCn1ccc2cc(S(=O)(=O)N3CCC(C(=O)NCCCN4CCCC(C)C4)CC3)ccc21 (stereo unspecified) | 676 s |
| CCN1CCC2(CC1)OC(=O)C(C)=C2C(=O)NCC(C)c1ccccc1 (stereo unspecified) | 630 s |
| Cc1noc(Cn2cnc3c4ccccc4n(CC(=O)NC4CCCC4)c3c2=O)n1 | 744 s |
| CC(C)n1c(=O)sc2cc(S(=O)(=O)N3CCC(C(=O)NCc4ccco4)CC3)ccc21 | 861 s |
| COC(=O)c1ccccc1NC(=O)Cn1cccc(-c2nc(-c3ccccc3)no2)c1=O | 629 s |
| Cc1ccc2c(c1)N(C(=O)Cn1ccc3ccn(Cc4ccccc4)c3c1=O)CCO2 | 853 s |
| O=C1NC2(CCN(C(=O)c3ccccc3)CC2)N=C1c1ccc(Cl)cc1 | 842 s |
| O=C(NCCC1CCN(C(=O)Nc2cc(F)cc(F)c2)CC1)C1CC1 | 735 s |
| CC1CCN(C(=O)c2cc3c(s2)CCN(C(=O)c2ccc(Cl)cc2)C3)CC1 | 987 s |
| CCCc1nc(-c2c(C)cc(C)nc2NC(=O)c2cc(C)cc(C)c2)no1 | 784 s |
| COc1cc2c(C(=O)OCCc3ccccn3)cn(-c3ccccc3)c(=O)c2cc1OC | 670 s |
| Cc1noc(C)c1CN1CCCCC1c1nc(-c2ccncc2)no1 (stereo unspecified) | 649 s |
| Cc1nocc1C(=O)N1CCCn2ccnc2C1C1CCCC1 (stereo unspecified) | 589 s |
| CCn1ccc2cc(S(=O)(=O)N3CCCN(C(=O)Nc4ccccc4)CC3)ccc21 | 868 s |

| SMILES | RP-LC retention time |
| --- | --- |
| Fc1ccccc1N1CCN(Cc2nc(-c3ccc(N4CCCC4)nc3)no2)CC1 | 698 s |
| Cc1ccc2c(c1)C(c1ccccc1)N(C(=O)c1ccc([N+](=O)[O-])cc1)CC(=O)N2 (stereo unspecified) | 834 s |
| CC(=O)c1ccc(NC(=O)NC2CCN(c3nc4ccccc4n(C)c3=O)CC2)cc1 | 748 s |
| COc1ccc(CNC(=O)Cn2c(=O)c3cc(-c4ccco4)nn3c3ncccc32)cc1 | 754 s |
| O=C(C1COc2ccccc2O1)N1CCN(Cc2nc3ccccc3[nH]2)CC1 (stereo unspecified) | 578 s |
| CCCNC(=O)c1cn(-c2ccc(NC(=O)CC)cn2)cn1 | 636 s |
| CCS(=O)(=O)N1CC(=O)N(Cc2ccc(Cl)cc2)C(C)(C(=O)NC2CCCCCCC2)C1 (stereo unspecified) | 1040 s |
| CCSC1=NCCN1C(=O)C(C)(C)Oc1ccc(Cl)cc1 | 770 s |
| CCc1nnc(C2CCN(C(=O)c3cc(C)on3)CC2)s1 | 624 s |
| Cc1nc(N2CCOCC2)c2c(C(=O)Nc3cc(Cl)ccc3C)c(C)oc2n1 | 869 s |
| CCn1cc(C)c(C(=O)O)c1CC(=O)NCc1ccc(C)cc1 | 772 s |
| COc1cc(C)c(C(C)C)cc1S(=O)(=O)Nc1cccc(C)n1 | 781 s |
| Cc1ccc(NC(=O)NCC(c2cccnc2)c2cn(C)c3ccccc23)c(Cl)c1 (stereo unspecified) | 768 s |
| CC(C(=O)NCCN1CCOCC1)C1CCN(C(=O)c2cc3cc(Cl)ccc3[nH]2)CC1 (stereo unspecified) | 589 s |
| Cc1nccn1CC(=O)N1CCCn2cc(-c3ccccc3F)nc21 | 644 s |
| CSCC[C@H](NC(=O)C(C)Oc1cc(C)cc2oc(=O)c3c(c12)CCCC3)C(=O)O (stereo partly specified) | 860 s |
| COc1ccc(NC(=O)Cc2nnc(-c3ccc4ncccc4c3)o2)cc1 | 685 s |
| Cc1ccc(F)c(NC(=O)c2cc(C(C)C)n3nccc3n2)c1 | 1250 s |
| CCn1cc(C)c(C(=O)O)c1CC(=O)Nc1ccc(C)cn1 | 680 s |
| O=S(=O)(NCCc1noc(-c2ccccc2)n1)c1ccc(Cl)cc1 | 980 s |
| CCCCNC(=O)C1CCN(C(=O)Nc2ccc(NC(=O)NC3CCCC3)cc2)CC1 | 684 s |
| CC1=NS(=O)(=O)N(C)C=C1C(=O)OCc1c(F)cccc1Cl | 968 s |
